Laboratory results reported in patent publication US8481597B2, “Use of (-) (3-trihalomethylphenoxy) (4-halophenyl) acetic acid derivatives for treatment of insulin resistance, type 2 diabetes, hyperlipidemia and hyperuricemia” (Metabolex, Inc., priority 1999, dated 2013).
Where two headings read alike, the source gives them in different places.

Assays:
[1] = molecular target: CYP2D6 (Homo sapiens, UniProt P10635); conditions: both, 15 min
[2] = test system: C57BL/6J ob/ob mice; assay: Glucose lowering of (±) and (−) halofenate analogs in ob/ob mice (Example 12); format: in vivo
[3] = molecular target: T1, CYP2A6 (Homo sapiens, UniProt P11509); conditions: for 7-HC Production: both, human, 20 min
T1 sequence (P11509 1-494): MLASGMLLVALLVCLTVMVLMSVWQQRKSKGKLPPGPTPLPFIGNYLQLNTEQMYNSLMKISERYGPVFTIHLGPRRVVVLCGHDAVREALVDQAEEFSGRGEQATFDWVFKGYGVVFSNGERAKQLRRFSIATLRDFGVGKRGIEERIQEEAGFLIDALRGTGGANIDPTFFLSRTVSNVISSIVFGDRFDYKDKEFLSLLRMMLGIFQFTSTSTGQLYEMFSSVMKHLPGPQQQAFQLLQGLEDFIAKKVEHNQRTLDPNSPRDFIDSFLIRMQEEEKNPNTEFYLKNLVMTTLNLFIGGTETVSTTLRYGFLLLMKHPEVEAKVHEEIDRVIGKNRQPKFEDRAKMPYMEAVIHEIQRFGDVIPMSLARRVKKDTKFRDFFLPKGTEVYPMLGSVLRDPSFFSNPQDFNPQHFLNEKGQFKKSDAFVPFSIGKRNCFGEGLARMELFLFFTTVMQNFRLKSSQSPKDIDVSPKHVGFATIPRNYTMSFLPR

[4] = molecular target: T2, CYP1A2 (Homo sapiens, UniProt P05177); conditions: both, 30 min
T2 sequence (P05177 1-516): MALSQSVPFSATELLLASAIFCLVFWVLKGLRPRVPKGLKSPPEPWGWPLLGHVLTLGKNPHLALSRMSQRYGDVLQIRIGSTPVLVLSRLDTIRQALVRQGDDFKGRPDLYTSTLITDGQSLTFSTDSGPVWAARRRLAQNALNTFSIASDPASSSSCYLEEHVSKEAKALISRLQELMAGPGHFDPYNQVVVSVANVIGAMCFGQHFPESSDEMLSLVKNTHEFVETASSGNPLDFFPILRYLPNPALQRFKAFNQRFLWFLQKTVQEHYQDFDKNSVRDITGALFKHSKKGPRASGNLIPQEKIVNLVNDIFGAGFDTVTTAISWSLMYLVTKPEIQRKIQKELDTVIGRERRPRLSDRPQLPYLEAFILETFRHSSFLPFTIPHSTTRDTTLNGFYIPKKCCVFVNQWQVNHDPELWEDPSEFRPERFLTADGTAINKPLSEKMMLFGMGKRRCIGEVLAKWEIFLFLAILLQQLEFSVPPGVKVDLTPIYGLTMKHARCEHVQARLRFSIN

[5] = molecular target: CYP2C9 (Homo sapiens, UniProt P11712); conditions: both, human, 40 min
[6] = molecular target: cytochrome P450 2C9 (CYP2C9) (Homo sapiens, UniProt P11712); assay: Inhibition of CYP2C9 tolbutamide hydroxylation in pooled human liver microsomes (Example 7); conditions: ratio of apparent IC50
Experimental: Tolbutamide hydroxylation activity (100 μM ^14C-tolbutamide; 1 mM NADPH) was assayed in pooled human liver microsomes (0.6 mg protein/ml)) for 60 minutes at 37° C. both with and without test compounds.

[7] = molecular target: CYP3A4 (Homo sapiens, UniProt P08684); conditions: both, 10 min
[8] = molecular target: T1, CYP2A6; assay: Cytochrome P450 isoform inhibition, coumarin, human hepatic microsomes (Example 18); conditions: TRAN 250 μM; 1 μM coumarin; VC 32.0 ± 1.4

Chain of CYP3A4 (P08684 whole entry, canonical isoform): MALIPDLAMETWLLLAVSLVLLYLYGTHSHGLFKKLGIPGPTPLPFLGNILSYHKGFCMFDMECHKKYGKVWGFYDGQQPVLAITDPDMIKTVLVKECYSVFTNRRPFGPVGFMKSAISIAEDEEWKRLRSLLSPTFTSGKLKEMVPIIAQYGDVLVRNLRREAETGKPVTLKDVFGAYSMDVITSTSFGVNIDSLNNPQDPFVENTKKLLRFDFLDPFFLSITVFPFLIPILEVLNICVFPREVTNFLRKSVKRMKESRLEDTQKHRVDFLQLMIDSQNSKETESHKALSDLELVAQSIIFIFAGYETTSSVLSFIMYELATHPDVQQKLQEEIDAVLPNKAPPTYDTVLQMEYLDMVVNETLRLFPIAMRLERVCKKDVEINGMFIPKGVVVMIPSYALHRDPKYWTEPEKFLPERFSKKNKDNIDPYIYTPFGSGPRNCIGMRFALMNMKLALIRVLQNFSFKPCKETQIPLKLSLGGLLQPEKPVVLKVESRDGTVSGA
Chain of CYP2D6 (P10635 whole entry): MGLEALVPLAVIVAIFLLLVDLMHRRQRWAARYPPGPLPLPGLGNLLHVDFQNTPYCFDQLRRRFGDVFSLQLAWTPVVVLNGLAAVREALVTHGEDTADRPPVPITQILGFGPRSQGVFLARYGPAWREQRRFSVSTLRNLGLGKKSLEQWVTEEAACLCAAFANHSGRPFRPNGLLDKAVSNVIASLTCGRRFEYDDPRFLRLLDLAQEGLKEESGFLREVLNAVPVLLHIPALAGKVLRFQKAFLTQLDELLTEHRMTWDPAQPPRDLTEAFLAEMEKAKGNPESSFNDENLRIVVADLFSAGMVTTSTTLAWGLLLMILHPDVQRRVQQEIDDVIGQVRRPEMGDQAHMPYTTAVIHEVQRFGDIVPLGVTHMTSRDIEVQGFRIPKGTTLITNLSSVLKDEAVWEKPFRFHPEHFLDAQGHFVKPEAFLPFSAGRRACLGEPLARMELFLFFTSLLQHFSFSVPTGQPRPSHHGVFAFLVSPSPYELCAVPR
Chain of CYP2C9 (P11712 whole entry): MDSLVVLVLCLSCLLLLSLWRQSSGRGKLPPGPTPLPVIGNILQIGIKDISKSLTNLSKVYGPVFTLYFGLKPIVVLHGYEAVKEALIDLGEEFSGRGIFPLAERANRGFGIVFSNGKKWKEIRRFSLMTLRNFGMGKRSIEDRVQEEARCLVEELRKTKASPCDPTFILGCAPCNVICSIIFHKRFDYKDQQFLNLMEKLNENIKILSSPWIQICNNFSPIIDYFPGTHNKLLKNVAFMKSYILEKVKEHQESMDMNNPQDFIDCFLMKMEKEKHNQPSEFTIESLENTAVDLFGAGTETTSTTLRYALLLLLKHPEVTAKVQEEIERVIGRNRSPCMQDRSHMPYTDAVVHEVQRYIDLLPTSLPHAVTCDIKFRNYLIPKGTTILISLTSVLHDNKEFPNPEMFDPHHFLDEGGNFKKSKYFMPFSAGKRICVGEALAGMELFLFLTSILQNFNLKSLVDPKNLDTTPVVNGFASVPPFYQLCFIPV
Chain of cytochrome P450 2C9 (CYP2C9) (P11712 whole entry): as above

O=C(O)C(Oc1cccc(C(F)(F)F)c1)c1ccc(Cl)cc1 (single isomer, unassigned; (-)) [(−) halofenic acid, (−) 4-chlorophenyl-(3-trifluoromethylphenoxy)-acetic acid]
DEX Production ([1]; 0.33 μM): 107 ± 4 pmol/mg protein/min | DEX Production ([1]; 1 μM): 110 ± 2 pmol/mg protein/min | DEX Production ([1]; 3.3 μM): 104 ± 3 pmol/mg protein/min | DEX Production ([1]; 10 μM): 107 ± 1 pmol/mg protein/min | DEX Production ([1]; 33.3 μM): 106 ± 4 pmol/mg protein/min | time points with significantly lowered plasma glucose concentrations ([2]; 125 mg/kg oral once a day): 6 h | 6 hours Glucose ([2]; 125 mg/kg oral once a day, 6 hours after first dose): 163.8 ± 11.8 mg/dL | Predose Glucose ([2]; baseline before dosing, group later given 125 mg/kg oral once a day): 312.9 ± 17.7 mg/dL | 7-HC Production ([3]; 0.33 μM): 33.3 ± 0.7 pmol/mg protein/min | 7-HC Production ([3]; 1 μM): 32.6 ± 0.7 pmol/mg protein/min | 7-HC Production ([3]; 3.3 μM): 32.1 ± 0.7 pmol/mg protein/min | 7-HC Production ([3]; 10 μM): 33.1 ± 0.7 pmol/mg protein/min | 7-HC Production ([3]; 33.3 μM): 32.3 ± 0.7 pmol/mg protein/min | AC Production ([4]; 0.33 μM): 116 ± 2 pmol/mg protein/min | AC Production ([4]; 1 μM): 118 ± 2 pmol/mg protein/min | AC Production ([4]; 3.3 μM): 119 ± 2 pmol/mg protein/min | AC Production ([4]; 10 μM): 119 ± 2 pmol/mg protein/min | AC Production ([4]; 33.3 μM): 119 ± 2 pmol/mg protein/min | 4-OH TB Production ([5]; 0.33 μM): 41.0 ± 0.9 pmol/mg protein/min | 4-OH TB Production ([5]; 1 μM): 38.6 ± 0.5 pmol/mg protein/min | 4-OH TB Production ([5]; 3.3 μM): 34.2 ± 0.2 pmol/mg protein/min | 4-OH TB Production ([5]; 10 μM): 22.7 ± 0.6 pmol/mg protein/min | 4-OH TB Production ([5]; 33.3 μM): 12.7 ± 0.2 pmol/mg protein/min | IC50 ([5]; microsomes): ~11.3 µM | fold less potent than (+) halofenic acid in inhibiting CYP2C9 [6]: ~20 fold | 6β-OHT Production ([7]; 0.33 μM): 1816 ± 12 pmol/mg protein/min | 6β-OHT Production ([7]; 1 μM): 1851 ± 14 pmol/mg protein/min | 6β-OHT Production ([7]; 3.3 μM): 1810 ± 3 pmol/mg protein/min | 6β-OHT Production ([7]; 10 μM): 1819 ± 4 pmol/mg protein/min | 6β-OHT Production ([7]; 33.3 μM): 1816 ± 6 pmol/mg protein/min

N[C@@H]1C[C@H]1c1ccccc1 (racemic) [TRAN, tranylcypromine, reference compound]
% Inhibition (Coumarin, CYP2A6) ([3]; microsomes): 100% | 7-HC Production [8]: 0.00 ± 0.00 pmol/mg protein/min
